One assay has as its system DA1 receptor. The note with it: clinical trials; cited from earlier work.
Assay [1] concerns the target T1, human dopamine D1 receptor clone GL-30 (dopamine D1β receptor) (Homo sapiens, UniProt P21918).
T1 construct: expressed in transfected cells; host or cells: Cos-7 cells, transient transfection with pcEXV-3 carrying GL-30
Briefly: [3H]SCH-23390 radioligand binding (saturation and competition) to membranes of Cos-7 cells transfected with clone GL-30.

Where [2] appears, read: competition binding, GL-30 in Cos-7 membranes.

Where two headings read alike, the source gives them in different places.

T1 sequence (P21918 whole entry): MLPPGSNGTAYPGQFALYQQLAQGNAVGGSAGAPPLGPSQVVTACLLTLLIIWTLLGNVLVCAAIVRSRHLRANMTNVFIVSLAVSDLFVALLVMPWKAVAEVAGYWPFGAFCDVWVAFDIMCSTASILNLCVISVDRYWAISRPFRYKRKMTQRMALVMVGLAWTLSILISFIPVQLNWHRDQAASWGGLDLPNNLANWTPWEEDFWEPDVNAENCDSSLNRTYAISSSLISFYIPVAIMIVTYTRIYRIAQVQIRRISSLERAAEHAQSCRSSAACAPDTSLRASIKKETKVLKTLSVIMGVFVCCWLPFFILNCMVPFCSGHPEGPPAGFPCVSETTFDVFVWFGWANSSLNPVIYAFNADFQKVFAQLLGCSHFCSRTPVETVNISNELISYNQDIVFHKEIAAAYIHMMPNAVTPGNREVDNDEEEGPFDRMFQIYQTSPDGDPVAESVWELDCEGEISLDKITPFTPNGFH

For `Oc1ccc(C2CNCCc3c2cc(O)c(O)c3Cl)cc1` (stereo not drawn) [fenoldopam], the renal vasodilatory action entry in the assay on DA1 receptor is recorded as “potent renal vasodilatory action”.

Turning to `CCCN1CCC[C@@H]2Cc3n[nH]cc3C[C@H]21` [quinpirole], in assay [1], the “potency/affinity in displacing [3H]SCH-23390 binding (in words)” value (“potency/affinity in displacing” for short) is given as “low affinity”. As to `COc1ccc2c(c1O)-c1c3c(cc4c1[C@H](C2)N(C)CC4)OCO3` [bulbocapnine], the “Ki values compared with those reported for the D1 receptor” value in assay [1] (versus native rat and human brain tissues and Cos-7 cells transfected with the previously cloned D1 gene) is given as “comparable”. Take `CCN1CCC[C@H]1CNC(=O)c1cc(S(N)(=O)=O)ccc1OC` [(−) sulpiride]: the “potency/affinity in displacing” value in assay [1] (setting [2]) is “low affinity”.

Regarding `NC[C@H](O)c1ccc(O)c(O)c1` [norepinephrine], in assay [1] (setting [2]), the “potency/affinity in displacing” value is “inactive”. With cis-flupenthixol, the “potency/affinity in displacing” value in assay [1] is “most potent”.

The values above are taken from US6939680B2 (H. Lundbeck A/S, priority 1990, dated 2005).
